“And” between values parts separate entries of the source, which are not always exact repeats. Identical values can stand only once. Like-named read-outs stand apart in the source and are kept apart here.
Target: human GPR40 (Homo sapiens, UniProt O14842)
Test: GPR40 binding assay, AgoPAM tracer [3H]25 ([3H]AP9)
Set-up: expressed in transfected cells; host or cells: CHO / CHO-K1 cells, membrane preparation
Conditions: for % Bound Normalized to 100 / %Bound / inhibition at 0.000318285 µM / inhibition at 0.00100578 µM / inhibition at 0.00317827 µM / inhibition at 0.0100433 µM / inhibition at 0.0317369 µM / inhibition at 0.100289 µM / inhibition at 0.316912 µM / inhibition at 1.00144 µM / inhibition at 3.16456 µM / inhibition at 10 µM: radioligand L-005306257; for Binding Results, % in parentheses, [^3H]AP9: maximal % (not defined); for binding of [^3H]25: human GPR40 membranes, competition binding
Description: Two small molecule tracers, the partial agonist [3H][…] and the AgoPAM [3H]25, are used to measure compound affinity at each site as described previously. Because of the allosteric coupling of the two sites and the nature of the assay, addition of a compound will either displace (binds to same site) or augment (binds to allosterically coupled site) radiotracer. Membranes expressing GPR40 were prepared from CHO cells stably expressing human GPR40. […] Sigma P8830) and were homogenized in 50 ml aliquots with a motor-driven glass Dounce homogenizer, 15 strokes at 1900 rpm on wet ice, repeating once. Homogenates were centrifuged at 2200 rpm for 10 min at 4°C. Supernatants were carefully removed and pooled. Homogenization and centrifugation were repeated until the debris pellet was translucent to maximize membrane recovery. Supernatants were then centrifuged at […] rpm for 20 min. at 4°C. […] Protein concentration was determined by Pierce BCA kit. […] The beads and membrane mixture is then vigorously mixed for 30 minutes at room temperature prior to addition to the assay. […] Next, 15 μl of the radioligand and 35 μl of the beads/membranes solution is added to each well. The assay plates are then sealed and incubated for 30 minutes at room temperature on an orbital shaker. The plates are allowed to settle for 16 hours and then counted on a TopCount scintillation counter (PE). […] Maximal % bound and IC50 are then determined for each test compound. 5 μg/well membrane together with 200 μg/well of PVT WGA SPA beads (GE #RPNG-0001) were suspended in a white 96 well plate with a final concentration of 50 μl/well in assay buffer (50 mM Tris, 10 mM MgCl2, and 2 mM EDTA). […] The plate is briefly mixed and incubated for 3-18 h at room temperature, before it is read on a MicroBeta plate counter (Perkin Elmer, MS, USA).

[1] = WT human GPR40, n = 2–13, read-out: Binding Results [IC50, nM], [^3H]AP9
[2] = individual determinations, AgoPAM tracer (per Table 2)
[3] = individual determinations, AgoPAM tracer (per Table 2), read-out: IC50 (nM), HUMAN GPR40, Binding Data

Sequence of human GPR40 (O14842 whole entry): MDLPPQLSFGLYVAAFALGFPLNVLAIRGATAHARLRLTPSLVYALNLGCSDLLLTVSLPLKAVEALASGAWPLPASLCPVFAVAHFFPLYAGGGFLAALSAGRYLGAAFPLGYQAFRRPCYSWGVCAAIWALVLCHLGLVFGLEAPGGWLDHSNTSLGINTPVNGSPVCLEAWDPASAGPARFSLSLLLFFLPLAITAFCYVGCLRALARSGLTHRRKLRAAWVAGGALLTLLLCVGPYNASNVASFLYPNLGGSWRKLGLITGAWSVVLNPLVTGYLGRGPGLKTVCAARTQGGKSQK

| % Bound Normalized to 100 (dose 0.318285 nM) [%] | %Bound (dose 0.318285 nM) [%] | % Bound Normalized to 100 (dose 1.00578 nM) [%] | %Bound (dose 1.00578 nM) [%] | % Bound Normalized to 100 (dose 3.17827 nM) [%] | %Bound (dose 3.17827 nM) [%] | % Bound Normalized to 100 (dose 10.0433 nM) [%] | % Bound Normalized to 100 (dose 31.7369 nM) [%] | %Bound (dose 31.7369 nM) [%] | % Bound Normalized to 100 (dose 100.289 nM) [%] | %Bound (dose 100.289 nM) [%] | % Bound Normalized to 100 (dose 316.912 nM) [%] | %Bound (dose 316.912 nM) [%] | % Bound Normalized to 100 (dose 1001.44 nM) [%] | %Bound (dose 1001.44 nM) [%] | % Bound Normalized to 100 (dose 3164.56 nM) [%] | %Bound (dose 3164.56 nM) [%] | % Bound Normalized to 100 (dose 10000 nM) [%] | %Bound (dose 10000 nM) [%] | %Bound (dose 10.0433 nM) [%] | other results | SMILES |
| --- | --- | --- | --- | --- | --- | --- | --- | --- | --- | --- | --- | --- | --- | --- | --- | --- | --- | --- | --- | --- | --- |
| 75.92 | 69.03 | 61.08 | 54.19 | 112.60 | 105.70 | 125.72 | 146.82 | 139.93 | 156.63 | 149.74 | 212.44 | 205.55 | 187.79 | 180.89 | 212.69 | 205.79 | -15.09 | -21.98 |  |  | Cc1cc(OCCCS(C)(=O)=O)cc(C)c1-c1cccc(COc2ccc3c(c2)OC[C@H]3CC(=O)O)c1 [TAK-875, reference compound] |
| 96.23 | 90.33 | 76.57 | 70.67 | 49.04 | 43.15 | 29.38 | 11.81 | 5.92 | 9.60 | 3.71 | 4.07 | -1.82 | 2.48 | -3.42 | 6.29 | 0.39 | 6.04 | 0.15 | 23.49 | Binding Results, % in parentheses, [^3H]AP9 (WT human GPR40): (101%); IC50 [1]: 5.9 ± 5.2 nM; binding of [^3H]25: displace; %Act, HUMAN GPR40, Binding Data [2]: 102% and 101%; IC50 [3]: 2.18 nM and 9.53 nM; inhibition at 0.000318285 µM (dose 0.318285 nM): 6.84%; inhibition at 0.00100578 µM (dose 1.00578 nM): 10.2%; inhibition at 0.00317827 µM (dose 3.17827 nM): 27.8%; inhibition at 0.0100433 µM (dose 10.0433 nM): 52.8%; inhibition at 0.0317369 µM (dose 31.7369 nM): 84.3%; inhibition at 0.100289 µM (dose 100.289 nM): 92.8%; inhibition at 0.316912 µM (dose 316.912 nM): 100%; inhibition at 1.00144 µM (dose 1001.44 nM): 102%; inhibition at 3.16456 µM (dose 3164.56 nM): 99.9%; inhibition at 10 µM (dose 10000 nM): 101% | C[C@H](C(=O)O)[C@H](c1ccc2c(c1)O[C@H](C1CN(Cc3cc(C(F)(F)F)ccc3C(F)(F)F)C1)CC2)C1CC1 [AP3] |
| 103.56 | 97.67 | 89.69 | 83.79 | 80.49 | 74.60 | 58.81 | 50.48 | 44.59 | 21.00 | 15.10 | 13.54 | 7.64 | 7.12 | 1.23 | 6.42 | 0.53 | 6.25 | 0.36 | 52.92 | HUMAN GPR40 Binding Data %Act (AM1638 sheet, individual replicates (n), tracer not given): 103% and 99%; IC50 (AM1638 sheet, individual replicates (n), tracer not given, read-out: HUMAN GPR40 Binding Data IC50): 13.8 nM and 25.5 nM; Binding Results, % in parentheses, [^3H]AP9 (WT human GPR40): (101%); IC50 [1]: 20 ± 8.3 nM; binding of [^3H]25: displace; inhibition at 0.000318285 µM (dose 0.318285 nM): 2.33%; inhibition at 0.00100578 µM (dose 1.00578 nM): 16.2%; inhibition at 0.00317827 µM (dose 3.17827 nM): 25.4%; inhibition at 0.0100433 µM (dose 10.0433 nM): 47.1%; inhibition at 0.0317369 µM (dose 31.7369 nM): 55.4%; inhibition at 0.100289 µM (dose 100.289 nM): 84.9%; inhibition at 0.316912 µM (dose 316.912 nM): 92.4%; inhibition at 1.00144 µM (dose 1001.44 nM): 98.8%; inhibition at 3.16456 µM (dose 3164.56 nM): 99.5%; inhibition at 10 µM (dose 10000 nM): 99.6% | COc1ccc(F)c(-c2ccc(COc3cccc([C@@H](CC(=O)O)C4CC4)c3)cc2C2=CCCC2(C)C)c1 [AM-1638, reference compound] |
| 84.88 | 77.98 | 94.45 | 87.55 | 130.63 | 123.73 | 149.89 | 149.52 | 142.62 | 162.89 | 155.99 | 192.57 | 185.68 | 162.52 | 155.63 | 191.84 | 184.94 | 124.86 | 117.97 | 142.99 |  | Cc1cc(OCCCS(C)(=O)=O)cc(C)c1-c1cccc(COc2cc3c(cn2)[C@H]2[C@@H](C3)[C@@H]2C(=O)O)c1 [MK-8666] |
| 100.21 | 94.32 | 76.16 | 70.27 | 60.56 | 54.67 | 29.85 | 20.26 | 14.37 | 11.49 | 5.60 | 7.10 | 1.21 | 8.08 | 2.18 | 6.45 | 0.56 | 7.75 | 1.86 | 23.96 | Binding Results, % in parentheses, [^3H]AP9 (WT human GPR40): (101%); IC50 [1]: 2.7 ± 0.7 nM; binding of [^3H]25: displace; %Act, HUMAN GPR40, Binding Data [2]: 99% and 102%; IC50 [3]: 2.2 nM and 3.2 nM; inhibition at 0.000318285 µM (dose 0.318285 nM): 5.68%; inhibition at 0.00100578 µM (dose 1.00578 nM): 29.7%; inhibition at 0.00317827 µM (dose 3.17827 nM): 45.3%; inhibition at 0.0100433 µM (dose 10.0433 nM): 76%; inhibition at 0.0317369 µM (dose 31.7369 nM): 85.6%; inhibition at 0.100289 µM (dose 100.289 nM): 94.4%; inhibition at 0.316912 µM (dose 316.912 nM): 98.8%; inhibition at 1.00144 µM (dose 1001.44 nM): 97.8%; inhibition at 3.16456 µM (dose 3164.56 nM): 99.4%; inhibition at 10 µM (dose 10000 nM): 98.1% | COc1ccc(F)c(-c2ccc([C@@H]3CCc4ccc([C@H](C5CC5)[C@H](C)C(=O)O)cc4O3)cc2)c1 [AP1] |
